Source: US10578610B2, “Peptide regulators of mitochondrial fusion and methods of use” (priority 2016, dated 2020)
Ends that are not written are not given here.

Legend:
[1] = biological target: T1, human Mfn2 (Homo sapiens, UniProt O95140); assay: Carboxypeptidase protection assay on mitochondrial membranes; assay type: biochemical; design: from tissue; host or cells: mitochondrial membranes of transgenic mouse hearts overexpressing human Mfn2; settings: 200 ng/ml carboxypeptidases A and B; mouse heart mitochondrial membranes overexpressing human Mfn2
T1 sequence (O95140 1-757): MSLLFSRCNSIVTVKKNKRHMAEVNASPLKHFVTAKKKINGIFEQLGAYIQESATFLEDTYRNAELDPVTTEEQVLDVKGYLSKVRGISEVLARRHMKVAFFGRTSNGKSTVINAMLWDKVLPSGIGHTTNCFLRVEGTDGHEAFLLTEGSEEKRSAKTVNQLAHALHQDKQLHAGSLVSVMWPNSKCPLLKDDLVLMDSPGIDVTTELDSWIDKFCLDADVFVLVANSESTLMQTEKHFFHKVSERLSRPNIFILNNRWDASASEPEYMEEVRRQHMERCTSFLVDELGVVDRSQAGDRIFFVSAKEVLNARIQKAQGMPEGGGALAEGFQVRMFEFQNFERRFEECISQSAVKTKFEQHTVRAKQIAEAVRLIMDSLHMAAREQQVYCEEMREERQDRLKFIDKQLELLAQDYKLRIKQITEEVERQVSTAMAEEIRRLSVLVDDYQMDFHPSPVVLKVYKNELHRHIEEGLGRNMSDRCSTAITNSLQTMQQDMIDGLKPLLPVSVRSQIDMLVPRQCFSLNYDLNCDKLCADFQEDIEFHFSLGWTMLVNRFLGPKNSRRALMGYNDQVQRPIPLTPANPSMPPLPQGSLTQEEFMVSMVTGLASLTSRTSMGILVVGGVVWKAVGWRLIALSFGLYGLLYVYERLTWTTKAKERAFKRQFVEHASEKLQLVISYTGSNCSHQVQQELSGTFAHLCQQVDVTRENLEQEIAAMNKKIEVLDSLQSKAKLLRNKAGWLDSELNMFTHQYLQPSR
Protocol: Mitochondrial membranes were prepared (Song et al., 2015, Cell Metab, 21:273-285) from mouse hearts overexpressing human Mfn2 (Gong et al., 2015, Science, 350:aad2459) and digested with 200 ng/ml each carboxypeptidases A and B (Sigma-Aldrich) for increasing times at room temperature, followed by immunoblotting using an antibody (Abcam ab56889) specific to hMfn2 HR2.

[2] = biological target: T2, hMfn2 (Homo sapiens, UniProt O95140); assay: Mfn2 FRET assay in live cells; assay type: cell-based; settings: 5 μM TAT-minipeptide, data not shown
T2 construct: expressed in transfected cells; host or cells: FMK 293T cells (so in the source), Lipofectamine-transfected, pcDNA3.1
T2 sequence (O95140 1-757): T1 sequence (O95140 1-757)
Protocol: mCerulean1 and mVenus were cloned onto the 5′ and 3′ ends of hMfn2 cDNA in pcDNA3.1 and confirmed by DNA sequencing. Lipofectamine-transfected biosensor-expressing FMK 293T cells were imaged on an Olympus IX81 ZDC inverted microscope under 40× magnification. mCerulean was excited at 436 nm with emission at 480 nm. mVenus was excited at 500 nm with emission at 535 nm. FRET was imaged with excitation at 436 nm and emission at 535 nm. Studies were performed after adding GTP[…]S (1 mM, Sigma-Aldrich) to suppress Mfn2 GTPase activity. Live cell FRET data were acquired as described (Spiering et al., 2013, Methods Cell Biol, 114:593-609) every 60 seconds for 15 minutes before and 90 minutes after addition of TAT-minipeptides (5 µM).

[3] = test system: Mfn2 KO MEFs; assay: TAT-minipeptides in a cell model of Mfn2 deficiency; assay type: cell-based, murine; settings: 1 μM or 5 μM, 24 hours, data not shown
Source text: Enhancing Mfn1- or Mfn2-mediated mitochondrial fusion with TAT-367-384 Gly has potential to alleviate mitochondrial morphological abnormalities like those evoked in CMT2A caused by nonsense or damaging non-synonymous Mfn2 mutations (Bombelli et al., 2014, JAMA Neurol, 71:1036-1042). It was reasoned that mitochondrial morphology would improve if endogenous normal Mfn1 or Mfn2 were assisted into their active conformations in which the D2 region is extended and/or available for interaction with the D2 region of a second Mfn protein (e.g., FIGS. 1B and 3B). This notion was tested in Mfn2 KO MEFs, a cell model of Mfn2 deficiency. WT MEFs and Mfn2 KO MEFs were treated with 1 μM or 5 μM TAT-367-384Gly peptide or TAT-398-418Gly peptide.

Sequence	carboxyl terminal-directed proteolytic digestion of Mfn2 (exposure of C-terminal HR2 domain) [1]	FRET of hMfn2 tagged with mCerulean1 and mVenus [2]	mitochondrial aspect ratio [3]
QIAEAVRGIMDSLHMAARGGYGRKKRRQRRR [TAT-367-384Gly]	accelerated carboxyl terminal-directed proteolytic digestion of Mfn2	had the opposite effect	normalized mitochondrial aspect ratio
QDRLKFIDKQGELLAQDYKLRGGYGRKKRRQRRR [TAT-398-418Gly]	had the opposite effect	increased	exaggerated mitochondrial shortening
